Experimental data reported in patent US6469013B2, “Therapeutic compounds” (Parker Hughes Institute, priority 1998, dated 2002).
Where two headings read alike, the source gives them in different places.

Columns and labels:
[1] = tested on: NALM-6 human leukemia cells; experiment: Mitochondrial membrane potential (DiIC1, JC-1 flow cytometry); type: cell-based; settings: for EC50: Homo sapiens, NALM-6
Procedure: Mitochondrial membrane potential (Δψm) was measured using two dyes including a lipophillic cation 5,5′,6,6′-tetrachloro-1,1′,3,3′-tetraethlybenzimidazolylcarbocyanine iodide (JC-1) and a cyanine dye, 1,1′,3,3,3′,3′-hexamethylindodicarbocyanine iodide (DiIC1 (27-29)) obtained from Molecular Probes (Eugene, Oreg.). JC-1 is a monomer at 527 nm after being excited at 490 nm; with polarization of Δψm, J-aggregates are formed that shift emission to 590 nm (30). This can be detected on a flow cytometer by assessing the green signal (at 527 nm) and green-orange signal (at 590 nm) simultaneously, creating an index of the number of cells polarized and depolarized mitochondria. DiIC1, a cyanine dye which is amphioatheic and cationic, concentrates in energized mitochondria and has been used in a variety of studies to measure the mitochondrial membrane potential (Fujii, H., et al., Histochem J. 29: 571-581, 1997; Mancini, M., et al., J. Cell Biol. 138: 449-469, 1997; and Petit, P. X., et al., J. Cell Biol. 130: 157-167, 1995). Cells were also stained with DiIC1 at 40 nM concentration for 30 min in the dark as described for JC-1. The cells were analyzed using a Vantage Becton Dickinson (San Jose, Calif.) cell sorter equipped with HeNe laser with excitation at 635 nm and the fluorescence was collected at 666 nm.
To test the cytotoxicity of compound 6 against JAK-3 expressing human leukemia cells, leukemic cells were exposed to this JAK3 inhibitor and monitored for apoptosis-associated changes in mitochondrial membrane potential (Δψm) and mitochondrial mass using specific fluorescent mitochondrial probes and multiparameter flow cytometry. To measure changes in Δψm, DiIC1 (which accumulates in energized mitochondria) was used, whereas the mitochondrial mass was determined by staining the cells with NAO, a fluorescent dye that binds to the mitochondrial inner membrane independent of energetic state. Treatment of NALM-6 leukemia cells with compound 6 at 7.4 μg/ml (25 μM) to 60 μg/ml (200 μM) for 24 h or 48 h increased the number of depolarized mitochondria in a concentration- and time-dependent manner as determined by flow cytometry using DiIC1 (27-29) (FIG. 7A). […] To further confirm this relative change in Δψm, we used JC-1, a mitochondrial dye, which normally exists in solution as a monomer emitting green fluorescence and assumes a dimeric configuration emitting red fluorescence in a reaction driven by mitochondrial transmembrane potential (Smiley, S. T., et al., Proc. Natl. Acad. Sci. U.S. A. 88: 3671-3675, 1991). Thus, the use of JC-1 allows simultaneous analysis of mitochondrial mass (green fluorescence) and mitochondrial transmembrane potential (red/orange fluorescence). After treatment of NALM-6 cells with compound 6 at increasing concentrations ranging from 25 μM to 200 μM and with increasing duration of exposure of 24 h or 48 h, we observed a progressive dissociation between Δψm and mitochondrial mass, with decrement in JC-1 red/orange fluorescence without a significant corresponding drop in JC-1 green fluorescence (FIG. 7C&D).

MOLT-3 (T-ALL) = experiment: Methylcellulose clonogenic assay; type: cell-based; settings: MOLT-3, 100 μM
Procedure: (§1) The antileukemic activity of compound 6 against clonogenic tumor cells was examined using a methylcellulose colony assay system (Uckun, F. M., et al., J. Exp. Med. 163: 347-368, 1986; Messinger, Y., et al., Clin Cancer Res. 4: 165-70, 1998). In brief, cells (10^5/ml in RPMI-10% FBS) were treated overnight at 37° C. with compound 6 at varying concentrations. After treatment, cells were washed twice, plated at 10^4 or 10^5 cells/ml in RPMI-10% FMS-0.9% methylcellulose in Petri dishes, and cultured for 7 days at 37° C. in a humidified 5% CO2 incubator. Subsequently, leukemic cell (or tumor cell) colonies were enumerated using an inverted phase-contrast microscope. The percent inhibition of colony formation was calculated using the following formula:
(§2) % Inhibition=1−mean number of colonies in test culture×100 mean number of colonies in control culture

DAUDI (B-ALL) = experiment: Methylcellulose clonogenic assay; type: cell-based
Procedure: as §1, §2

M24-MET (Melanoma) = experiment: Methylcellulose clonogenic assay; type: cell-based
Procedure: as §1, §2

HL-60 (AML) = experiment: Methylcellulose clonogenic assay; type: cell-based; settings: HL-60, 100 μM
Procedure: as §1, §2

[2] = tested on: SQ20B (Squamous Carcinoma); experiment: Methylcellulose clonogenic assay; type: cell-based
Procedure: as §1, §2

RAMOS (B-ALL) = experiment: Methylcellulose clonogenic assay; type: cell-based
Procedure: as §1, §2

BT20 (Breast Cancer) = experiment: Methylcellulose clonogenic assay; type: cell-based
Procedure: as §1, §2

C57BL/6 males = experiment: Splenocyte populations after in vivo treatment (FACS); parameters: species or system mouse; settings: 130 mg/kg for 10 days
Procedure: All Abs were purchased from Pharmingen, San Diego, Calif. Stained splenocytes were analyzed by FACS Calibur, as described above.

COc1cc2ncnc(Nc3ccc(O)cc3)c2cc1OC [WHI-P131, 4-(4′-hydroxyl-phenyl)-amino-6,7-dimethoxyquinazoline]
JC-1 green fluorescence (mitochondrial mass) ([1]; 200 μM × 48 hours): 99.8% | fraction of DiIC1-negative cells with depolarized mitochondria ([1]; 200 μM, 48 hours): 81.6% | fraction of JC-1 red/orange fluorescence-negative cells ([1]; 200 μM, 48 hours): 16.9% | EC50 ([1]; 24 hour treatment, read-out: EC50, depolarization of mitochondria (decreased DiIC1 staining)): 79.3 µM | EC50 ([1]; 24 hour treatment, read-out: EC50, depolarization of mitochondria (decreased JC-1 red/orange fluorescence)): 94.2 µM | EC50 ([1]; 48 hour treatment, read-out: EC50, depolarization of mitochondria (decreased DiIC1 staining)): 58.4 µM | EC50 ([1]; 48 hour treatment, read-out: EC50, depolarization of mitochondria (decreased JC-1 red/orange fluorescence)): 50.4 µM | inhibition at 100 µM (MOLT-3 (T-ALL); Homo sapiens): > 99.9% | Mean No. of Colonies/10^5 Cells (MOLT-3 (T-ALL)): 1 (1, 1) | Mean No. of Colonies/10^5 Cells (DAUDI (B-ALL); DAUDI, 0.3 μM): 2030 (1700, 2360) | Mean No. of Colonies/10^5 Cells (DAUDI (B-ALL); DAUDI, 1 μM): 2136 (1568, 2704) | Mean No. of Colonies/10^5 Cells (DAUDI (B-ALL); DAUDI, 3 μM): 1406 (988, 1824) | Mean No. of Colonies/10^5 Cells (DAUDI (B-ALL); DAUDI, 10 μM): 1149 (1054, 1244) | Mean No. of Colonies/10^5 Cells (DAUDI (B-ALL); DAUDI, 30 μM): 29 (12, 46) | EC50 (DAUDI (B-ALL); Homo sapiens, DAUDI cells, read-out: EC50, inhibition of clonogenic growth): 18.8 µM | inhibition at 0.3 µM (DAUDI (B-ALL); Homo sapiens, DAUDI, 0.3 μM): 48.6% | inhibition at 1 µM (DAUDI (B-ALL); Homo sapiens, DAUDI, 1 μM): 45.9% | inhibition at 3 µM (DAUDI (B-ALL); Homo sapiens, DAUDI, 3 μM): 64.4% | inhibition at 10 µM (DAUDI (B-ALL); Homo sapiens, DAUDI, 10 μM): 70.9% | inhibition at 30 µM (DAUDI (B-ALL); Homo sapiens, DAUDI, 30 μM): 98% | Mean No. of Colonies/10^5 Cells (M24-MET (Melanoma); 0.3 μM): 312 (238, 386) | Mean No. of Colonies/10^5 Cells (M24-MET (Melanoma); 1 μM): 287 (157, 418) | Mean No. of Colonies/10^5 Cells (M24-MET (Melanoma); 3 μM): 390 (280, 500) | Mean No. of Colonies/10^5 Cells (M24-MET (Melanoma); 10 μM): 301 (249, 353) | Mean No. of Colonies/10^5 Cells (M24-MET (Melanoma); 30 μM): 599 (534, 664) | inhibition at 0.3 µM (M24-MET (Melanoma); Homo sapiens, M24met, 0.3 μM): 0% | inhibition at 1 µM (M24-MET (Melanoma); Homo sapiens, M24met, 1 μM): 0% | inhibition at 3 µM (M24-MET (Melanoma); Homo sapiens, M24met, 3 μM): 0% | inhibition at 10 µM (M24-MET (Melanoma); Homo sapiens, M24met, 10 μM): 0% | inhibition at 30 µM (M24-MET (Melanoma); Homo sapiens, M24met, 30 μM): 0% | Mean No. of Colonies/10^5 Cells (HL-60 (AML)): 1 (1,1) | inhibition at 100 µM (HL-60 (AML); Homo sapiens): > 99.9% | Mean No. of Colonies/10^5 Cells ([2]; 30 μM): 838 (600, 1076) | inhibition at 30 µM ([2]; Homo sapiens): 0% | Mean No. of Colonies/10^5 Cells (RAMOS (B-ALL); 30 μM): 2 (0, 4) | inhibition at 30 µM (RAMOS (B-ALL); Homo sapiens): 99.8% | Mean No. of Colonies/10^5 Cells (BT20 (Breast Cancer); BT20, 10 μM): 3298 (2940, 3656) | Mean No. of Colonies/10^5 Cells (BT20 (Breast Cancer); BT20, 100 μM): 2190 (1632, 2748) | inhibition at 10 µM (BT20 (Breast Cancer); Homo sapiens, BT-20, BT20, 10 μM): 0% | inhibition at 100 µM (BT20 (Breast Cancer); Homo sapiens, BT-20, BT20, 100 μM): 18.2% | percentages of CD3+, CD4+ and CD8+ T-cells and CD19+ B-cells vs vehicle (C57BL/6 males; data not shown): no differences | number of CD4+ T-cells (C57BL/6 males; controls 20.5±0.6): 16.8±1.2 ×10^6 | number of CD3+ splenocytes (C57BL/6 males; controls 46.9±2.6): 37.7±3.2 ×10^6 | number of B-cells (C57BL/6 males; controls 78.2±6.1): 57.1±5.3 ×10^6 | Total number of splenocytes (C57BL/6 males; vehicle 154±8.5): 119±9.4 ×10^6
